# Reference: publication PMC11588021, “Sequence-defined phosphoestamers for selective inhibition of the KRAS^G12D/RAF1 interaction” (Chemical Science, 2024)
# Several values for one entry are separate records, joined by “and”; a condition that tells them apart may be missing. Equal entries are not always repeated. Entries after “also recorded” stand apart in the source; their conditions may differ.
# Columns and labels:
# [1] = target: T1, KRAS^G12D-GMPPnP / RAF1-RBD-GFP interaction (Homo sapiens, UniProt P01116, G12D); assay: KRAS^G12D/RAF1-RBD interaction assay (plate coated with KRAS, RAF1-RBD-GFP fluorescence); type: biochemical
# T1 construct: and KRas4B(1-169)[G12D], optimised for expression in E.coli; His6 (N); Avi tag (biotinylated with BirA) (N); TEV site (N); made in house; host or cells: E. coli BL21(DE3) Gold for KRAS; E. coli BL21(DE3) for RAF1-RBD-GFP
# Method: Phosphoestamers O1–O6 were resynthesised on a 1 μmol scale using the DNA synthesiser and the yields were determined by manually cleaving the final DMT protecting group of each molecule and quantifying the DMT cation by UV-visible spectroscopy (ESI Section 2.4 ^†). The achievement of desired length and purity was confirmed by polyacrylamide gel electrophoresis (Fig. 5a). The resynthesised phosphoestamers were purified away from smaller molecules using C18 spin tips. To ensure the assay was viable, a positive control Ch-3 (Fig. 5a) known to disrupt KRAS^G12D interactions[50] was synthesised. […] Any KRAS sites not blocked by the phosphoestamers would interact with the RAF1-GFP and result in a fluorescent signal which would be detected. In this assay, we first established that both KRAS^G12D-GMPPnP and RAF1-RBD-GFP were required to give a fluorescence signal.
# To the 96 well plate, 100 µL was added to each well containing 2 µg/mL KRASG12D-GMPPnP or KRASWT-GMPPnP in coating buffer (see buffers, page 3). […] The emission spectrum o f GFP (490 – 560 nm) was measured on the plate reader.
# GraphPad Prism (9.5.1) was used to calculate the area under the curve (AUC) of the emission spectra between 490 and 540 nm. IC50 values were calculated on GraphPad Prism, using the non-linea r regression fit (Sigmoidal, 4PL, X is concentration) analysis. […]
# [2] = target: T2, KRAS^WT-GMPPnP / RAF1-GFP interaction (Homo sapiens, UniProt P01116); assay: KRAS^WT/RAF1-RBD interaction assay (same plate assay); type: biochemical; conditions: 'high' and 'low' concentrations, approximately IC50 ÷ 3 and IC50 × 3
# T2 construct: and KRas4B(1-169)[G12D], optimised for expression in E.coli; His6 (N); Avi tag (biotinylated with BirA) (N); TEV site (N); made in house; host or cells: E. coli BL21(DE3) Gold for KRAS; E. coli BL21(DE3) for RAF1-RBD-GFP
# Method: Since four phosphoestamers were determined to have consistent dissociation activity between KRAS^G12D-GMPPnP and RAF1-GFP, we then used the same assay to determine whether these molecules would have any activity against KRAS^WT-GMPPnP or whether they would be selective for the mutant form (Fig. 5e).
# To the 96 well plate, 100 µL was added to each well containing 2 µg/mL KRASG12D-GMPPnP or KRASWT-GMPPnP in coating buffer (see buffers, page 3). The plate was shaken on a plate rotator at 300 rpm and left to incubate at 4 °C overnight. After incubation, the KRASG12D/WT solution was removed, and the plate was then washed with 100 µL per well of blocking buffer twice. 100 µL of blocking buffer was then added per well and the plate was incubated at 37 °C for one hour. […] The emission spectrum o f GFP (490 – 560 nm) was measured on the plate reader.
# GraphPad Prism (9.5.1) was used to calculate the area under the curve (AUC) of the emission spectra between 490 and 540 nm. IC50 values were calculated on GraphPad Prism, using the non-linea r regression fit (Sigmoidal, 4PL, X is concentration) analysis.
# To the well plate, 100 µL was added to each well containing 2 µg/mL of the 4:1 conjugate of KRASG12D-G M PP nP -streptavidin fluorescein in coating buffer. […] The emission spectrum of fluorescein (500 – 600 nm) was measured using the plate reader. […]
# [3] = test system: KRAS^G12D (inactive GDP-form); design: method as in PMID 34889605; conditions: binds to the inactive GDP-form of the protein; cited from earlier work
molecule,measurement,setting,value
"COc1cccc(-c2ccc(Nc3ccc(CN(C)C)cc3)c(OC)c2F)c1 [Ch-3, reference compound]",IC50,"[1]; positive control, n = 3",6350 ± 200 nM
NDI-C12-C12-C12-NDI-BPA [Phosphoestamer O2],Effect on KRAS^WT-GMPPnP/RAF1-GFP interaction,[2],only O5 caused a decrease in fluorescent signal; also recorded: inactive
same,IC50,"[1]; AUC of GFP emission 490-540 nm, three biological repeats (O4 n = 4)",< 100 nM and 70.9 nM
C#Cc1c(F)ccc2cc(O)cc(-c3ncc4c(N5CC6CCC(C5)N6)nc(OC[C@@]56CCCN5C[C@H](F)C6)nc4c3F)c12 [MRTX1133],IC50,[3],5 nM
